These results are taken from paper PMC6154339, “Synthesis, Characterization, Antimicrobial and Antiproliferative Activity Evaluation of Cu(II), Co(II), Zn(II), Ni(II) and Pt(II) Complexes with Isoniazid-Derived Compound” (Molecules : A Journal of Synthetic Chemistry and Natural …, 2017).

Where two headings read alike, the source gives them in different places. Some results are limits rather than exact numbers.

Data set [1] can be described thus: Solubility in compendial aqueous media. It counts as physicochemical. The settings on record: 37 °C, 30 min, mean ± standard deviation, n = 3. The procedure:
Solubility assessment was conducted in compendial aqueous solutions prepared according to United States Pharmacopoeia USP39/NF34): hydrochloric acid 0.1 N pH 1.2, acetate buffer pH 4.5 and phosphate buffer 6.8. These buffer systems are routinely used for screening of drug dissolution testing and they simulate the pH values of proximal gastrointestinal regions. The standard samples were prepared by diluting the stock solution of 80 µg/mL in dimethyl sulfoxide (with 0.2% pyridine, v/v) with corresponding media. The reagents were of analytical grade and used as received.
The assay was performed using a SpectraMax Plus 84 Plate reader reader (Sunnyvale, CA, USA), Molecular Devices LLC (US), equiped with SoftMax software version 6.4.2 (Sunnyvale, CA, USA). Separate plates were loaded with standard solutions in nine concentrations (0.2 to 80 µg/mL). For evaluation of the aqueous solubility, the samples were prepared in triplicate by adding 10 µL of the stock solution to the wells loaded with 190 µL of each buffer, using MultiScreen HTS plates (PCF, code MSSLBPC, Merck Millipore, Darmstadt, Germany). After 30 minutes of incubation at 37 ± 0.5 °C under agitation (250 rpm, IKA KS 4000 ic control, IKA, Staufen, Germany), the plates were filtrated under vacuum using a Vac-Man 96 Vacuum manifold (Promega Corporation, Madison, WI, USA). The solutions were collected in V-bottom polypropylene 96-well microplates (Greiner Bio-One, Kremsmünster, Austria). Volumes of 100 µL were transferred to UV-Star 96-well microplate with flat bottom (Chimney well, Grained Bio-One) and diluted by addition of 100 µL of the corresponding medium. The absorbance corresponding to each well was determined at fixed wavelengths: 280, 300, 320, 340, 360 and 800 nm. The reduced value of absorbance, calculated by the sum of the values recorded at the six wavelengths, were used for the calibration curve and subsequent determination of concentration in each solubility sample.

A further data set has as its system Candida albicans. The data set is described as follows: Antifungal (antimycotic) activity, liquid Sabouraud medium (MIC/MBC). The settings on record: C. albicans. It counts as cell-based. The source says:
(§1) All synthesized complexes and the ligand were screened for their in vitro antibacterial activity against Gram-positive bacteria (Staphylococcus aureus), Gram-negative bacteria (Escherichia coli, Klebsiella pneumoniae) and antifungal activity (Candida albicans) strains using the paper disc diffusion technique (for the qualitative determination) and the serial dilutions in liquid broth method (for determination of MIC). Furacillinum and nystatine were used as standard drugs.
Antimycotic properties of the complexes were investigated in vitro on laboratory stem Candida albicans. The activity has been determined in a liquid Sabouraud nutritive environment (pH 6.8). The inoculates were prepared from fungi stems which were harvested over 3–7 days. Their concentration in suspension is (2–4) × 10^6 colonies form unities in milliliter. Sowings for levures and micelles were incubated at 37 °C during 7 and 14 days, respectively.

The test system of data set [2] is Escherichia coli, ATCC 25922. The data set is described as follows: Antibacterial activity, serial dilutions in liquid broth (MIC/MBC). The class given is cell-based. The settings on record: E. coli (G −).
Description: as §1
(§2) The antibacterial activity of complexes and also of their prototype furacilin has been determined under liquid nutritive environment (2% of peptonate bullion (pH 7.0)) using the successive dilutions method. Escherichia coli, Klebsiella pneumoniae, and Staphylococcus aureus stems were used as reference culture for the in vitro experiment. The dissolution of studied substances in dimethylformamide, microorganism cultivation, suspension obtaining, determination of minimal inhibition concentration (MIC) and minimal bactericide concentration (MBC) have been carried out according to the method previously reported.

The test system of data set [3] is Staphylococcus aureus, ATCC 25923. The description is as above. The class given is cell-based. The settings on record: S. aureus (G +).
Description: as §1, §2

The test system of data set [4] is Klebsiella pneumoniae, ATCC 31,488. The description is as above. The note with it: K. pneumoniae (G −). The class given is cell-based.
Description: as §1, §2

Data set [5] in a line: Qualitative solubility in organic solvents. It counts as physicochemical.
The test system of data set [6] is NCI-H1573 lung adenocarcinoma cell line. The data set is described as follows: Alamar blue cell viability assay. The note with it: 48 h treatment, 10 µM, relative to untreated control. The class given is cell-based. The procedure:
(§3) Compounds HL, 1, 5, 6 and 8 were dissolved in dimethyl sulfoxide (DMSO; Sigma-Aldrich, Ayrshire, UK) and stored at 2–8 °C. Compounds 2, 3, 4 and 7 were dissolved in pyridine (Fluka, Munich, Germany). A stock solution of 10 mM in the proper solvents was prepared; as for the final concentration (10 µM), successive dilution of the stock solution with culture medium was made.
(§4) The breast cancer cell lines were cultured as follow: MCF-7 human breast cancer cell line (ATCC, Rockville, MD, USA) was cultured in EMEM (Sigma Aldrich, Munich, Germany) supplemented with 10% FCS (fetal bovine serum, PromoCell, Heidelberg, Germany), 1% penicillin-streptomycin (Pen/Strep, 10,000 IU/mL; PromoCell, Heidelberg, Germany), 1% nonessential amino acids and 1% glutamine (PromoCell, Heidelberg, Germany). SKBR-3 human breast cancer cell line was cultured in McCoy’s 5a Medium Modified (Sigma Aldrich, Munich, Germany) supplemented with 10% FCS (fetal bovine serum, PromoCell, Heidelberg, Germany), 1% penicillin-streptomycin (Pen/Strep, 10,000 IU/mL; PromoCell, Heidelberg, Germany). A375 human melanoma cell line was cultured in DMEM containing 15% FCS (fetal bovine serum, PromoCell, Heidelberg, Germany) and 1% penicillin-streptomycin (Pen/Strep, 10,000 IU/mL; PromoCell, Heidelberg, Germany). Cells were maintained at an atmosphere of 5% CO2 at 37 °C. NCI-H1573 lung adenocarcinoma cell line was cultured in RPMI-1640 Medium (ATCC, Rockville, MD, USA) supplemented with 10% FCS (fetal bovine serum, PromoCell, Heidelberg, Germany), 1% penicillin-streptomycin (Pen/Strep, 10,000 IU/mL; PromoCell, Heidelberg, Germany).
(§5) All tested cell lines were seeded onto a 96-well microplate ([…]) and left overnight to attach to the bottom of the well. After 24 h, the amount of 150 μL of the tested substances dissolved into the culture medium was added and cells were incubated for 48 h. After the incubation period, a volume of 15 μL of the Alamar blue (BioSource, Camarillo, CA, USA) solution was added. After another 10 h of incubation at 37 °C, the samples were spectrophotometrically analyzed using a microplate reader. The wave lengths used were 570 nm and 600 nm, respectively. Wells with untreated cells were used as controls. The highest concentration of DMSO and pyridine (0.1%) used to prepare stock solutions was also tested, in order to identify the solvent activity. All measurements were performed in triplicate and data were presented as mean ± standard deviation.
In general terms: The colour change of resazurin is a common sign of viable cells or microbes.

Data set [7] has as its system A375 human melanoma cell line. The data set is described as follows: Alamar blue cell viability assay. The settings on record: 48 h treatment, 10 µM, relative to untreated control. The class given is cell-based. The procedure:
as §3, §4, §5

For data set [8], the system named is MCF-7 human breast cancer cell line. The data set can be described thus: Alamar blue cell viability assay. The note with it: 48 h treatment, 10 µM, relative to untreated control. The class given is cell-based. The procedure:
as §3, §4, §5

For data set [9], the system named is SKBR-3 human breast cancer cell line. The data set is described as follows: Alamar blue cell viability assay. It counts as cell-based. The settings on record: 48 h treatment, 10 µM, relative to untreated control. The method, then:
as §3, §4, §5

Setting [10] is: Hydrochloric Acid 0.1 N (pH = 1.2).

On to `CC(=O)[O-].COc1cccc(C=NNC(=O)c2ccncc2)c1[O-].[Cu+2]` [complex 2, [Cu(L)(CH3COO)]], for which the LC50 with Daphnia magna (incubation period 24 h) came to 69.6 µM; in the data set on Daphnia magna (incubation period 48 h) it was 13.1 µM. Moreover, the “solubility in compendial media” value is recorded as 1.27 ± 0.06 µg/mL in [1] (Acetate Buffer (pH = 4.5)), 1.75 ± 0.54 µg/mL in [1] (setting [10]) and under 0.2 µg/mL in data set [1] (Phosphate Buffer (pH = 6.8)). The MBC in the data set with Candida albicans stood at 250 µg/mL; in [2] it was 500 µg/mL; in [3] it was 0.015 µg/mL; in [4], 500 µg/mL. The MIC in the data set with Candida albicans is 125 µg/mL; in data set [2] it was 500 µg/mL; in data set [3], 0.015 µg/mL; in data set [4], 500 µg/mL. In addition, the “solubility in organic solvents (qualitative)” value (from here on “solubility in organic solvents”) in [5] was “soluble in pyridine and is partially soluble in ethanol, methanol, acetonitrile, acetone, DMF and DMSO”. The Viability % is given as 7.22% in data set [6], 0.73% in data set [7], 2.10% in [8] and 6.88% in data set [9].

On to `COc1cccc(C=NNC(=O)c2ccncc2)c1[O-].O.[Cu+2].[O-][Cl+3]([O-])([O-])[O-]` [complex 4, [Cu(L)(ClO4)]·H2O], for which the “solubility in compendial media” value in data set [1] (Acetate Buffer (pH = 4.5)) is on record as 1.67 ± 0.28 µg/mL; in [1] (setting [10]), 0.82 ± 0.6 µg/mL; in [1] (Phosphate Buffer (pH = 6.8)) it was under 0.2 µg/mL. For the same compound, the MBC in the data set with Candida albicans is given as 0.7 µg/mL; in [2], 500 µg/mL; in data set [3], 0.7 µg/mL; in data set [4], 500 µg/mL. In addition, the MIC is 0.7 µg/mL against Candida albicans, 250 µg/mL in [2], 0.7 µg/mL in data set [3] and 250 µg/mL in [4]. In addition, the “solubility in organic solvents” value in data set [5] was “soluble in pyridine and is partially soluble in ethanol, methanol, acetonitrile, acetone, DMF and DMSO”. In addition, the Viability % in [6] is 10.05%; in data set [7], 0.70%; in [8] it was 3.43%; in data set [9] it was 48.72%.

Consider `COc1cccc(C=NNC(=O)c2ccncc2)c1[O-].COc1cccc(C=NNC(=O)c2ccncc2)c1[O-].[Zn+2]` [complex 6, [Zn(L)2]], for which the “solubility in compendial media” value is given as 1.56 ± 0.82 µg/mL in [1] (Acetate Buffer (pH = 4.5)), 1.65 ± 0.06 µg/mL in [1] (setting [10]) and under 0.2 µg/mL in data set [1] (Phosphate Buffer (pH = 6.8)). Moreover, the MBC came to 125 µg/mL against Candida albicans, 250 µg/mL in data set [2], 125 µg/mL in [3] and 250 µg/mL in [4]. Moreover, the MIC with Candida albicans stood at 125 µg/mL; in [2], 125 µg/mL; in [3] it was 63 µg/mL; in [4], 250 µg/mL. Besides, the “solubility in organic solvents” value in data set [5] is “soluble in pyridine, DMF and DMSO, and is partially soluble in ethanol, methanol, acetonitrile, acetone”. Further, the Viability % in [6] was determined as 33.77%; in data set [7] it was 71.66%; in [8] it was 17.72%; in data set [9], 61.43%.

Broadly, the LC50 is the concentration that kills 50% of the test population. High values mean a less lethal substance, low ones a more lethal substance. As a reminder, the MIC is the lowest concentration found to suppress growth.
